Like-named read-outs stand apart in the source and are kept apart here. Marks after values point to notes of the source that are not given here.
Tests used:
[1] = Solubility free acid vs. salt, shake-flask method (Example 12); format: physicochemical
[2] = Hygroscopy, dynamic vapour sorption (DVS) isotherms (Example 15); format: physicochemical; conditions: for DVS Dm @ 30% R.H. (Sorption) / DVS Dm @ 50% R.H. (Sorption) / DVS Dm @ 80% R.H. (Sorption): summarized results
Method: Water sorption isotherms were determined using a DVS Resolution gravimetric sorption analyzer (London, UK), or a DVS Intrinsic instrument (Surface measurement Systems). The sample was dried for 1000 minutes at 0% relative humidity (R.H.). Afterwards the dry weight was recorded. […] The equilibrium criterion for each relative humidity set point was 0.002% per minute relative mass change as a function of time.

[3] = Dissolution profile, flow through cell in FeSSIF / FaSSIF (Example 16); format: physicochemical; conditions: micronized samples
Method: Prior to the measurements, the samples were micronized using a jet mill (MC DECJET 30) under nitrogen, with a pressure of 4.5 Bar for the injector and 4.0 Bar grinding pressure.
Dissolution rates of the drug substance were then determined using a flow through cell (FTC) from Sotax. All experiments were conducted in triplicates.
Then, the respective medium (FaSSIF or FeSSIF) was pumped through the cell with a pump rate of 2 mL/min for a total time of 14 minutes, resulting in a total volume of 28 mL. This volume was collected in time increments of 2 minutes, leading to 7 collected fractions with 4 mL each. The drug substance concentration of each fraction was determined by HPLC (external standard).

[4] = Thermodynamic stability of polymorphic form; format: physicochemical
[5] = Solubility of cholinate vs free acid and other salts, shake-flask method (Example 14); format: physicochemical
Method: Preparation of FaSSIF (Fasted State Simulated Intestinal Fluid) blank solution: 4.2 g NaOH, 44.7 g NaH2PO4*2 H2O, and 61.86 g NaCl were dissolved in approximately 9.5 L demineralized water. Then, the pH of this solution was adjusted to 6.50+/−0.05 using HCl or NaOH, respectively. In the last step, the final volume was adjusted to 10.0 L by the addition of demineralized water.
Preparation of the final FaSSIF solution: 4.48 g SIF (Simulated Intestinal Fluids) powder (provider: biorelevant.com, Product code: FFF01 (May 2022)) were dissolved in approximately 500 mL FaSSIF blank solution, then the final volume was adjusted to 2.0 L by the addition of FaSSIF blank solution. After 2 hours, the solution was considered to be ready to use and was used within 48 hours.
Preparation of FeSSIF (Fed State Simulated Intestinal Fluid) blank solution: 40.4 g NaOH, 118.74 g NaCl, and 82.4 mL glacial acetic acid were dissolved in approximately 9.5 L demineralized water. Then, the pH of this solution was adjusted to 5.00+/−0.05 using HCl or NaOH, respectively. In the last step, the final volume was adjusted to 10.0 L by the addition of demineralized water.
Preparation of the final FeSSIF solution: 22.4 g SIF powder (provider: biorelevant.com, Product code: FFF01 (May 2022)) were dissolved in approximately 500 mL FeSSIF blank solution, then the final volume was adjusted to 2.0 L by the addition of FeSSIF blank solution. The solution was considered to be ready to use immediately after manufacturing and was used within 48 hours.

[6] = Determination of exposure in rat after intragastric administration (Example 13); format: in vivo; conditions: for AUC(0-t): female, plasma, po, read-out: AUC(0-tlast); for AUC(0-t) / AUC(0-tlast)norm / AUC(0-tlast): free acid in rat plasma
Method: Determination of exposure after intragastric application of test compounds was performed in female conscious rats with a body weight of 0.2 kg (minimum) to 0.25 kg (maximum). The test compounds were applied as bolus via intragastric probe to unfed female rats in solution or suspension in the vehicle ethanol/solutol/water (v/v/v 10/40/50).
At the indicated timepoints between 8 min and 24 h after dosing, 150 μl blood were sampled via a catheter from the vena jugularis. The samples were treated with K-EDTA as anticoagulant and stored cooled until further processing (refrigerator, 4° C.). The samples were centrifuged (15 min, 3000 rpm), then an aliquot of 100 μL was taken from the supernatant (plasma), precipitated by addition of 400 μL cold acetonitrile or methanol (abs.) and frozen at −20° C. over night. The samples were centrifuged (15 min, 3000 rpm), then 150 μL of the clear supernatant were taken for analytical testing. Analytics were performed using an Agilent 1200 HPLC-system with LCMS/MS detection.
The applied dose of cholinate according to the invention was adjusted as compared to free acid according to the difference in molecular weight. The resulting equivalent doses were used for comparison.

[7] = 0% Relative humidity, listed as Cholinate Form A
[8] = 10% Relative humidity, listed as Cholinate Form A
[9] = 20% Relative humidity, listed as Cholinate Form A
[10] = 30% Relative humidity, listed as Cholinate Form A
[11] = 40% Relative humidity, listed as Cholinate Form A
[12] = 50% Relative humidity, listed as Cholinate Form A
[13] = 60% Relative humidity, listed as Cholinate Form A
[14] = 70% Relative humidity, listed as Cholinate Form A
[15] = 80% Relative humidity, listed as Cholinate Form A
[16] = 90% Relative humidity, listed as Cholinate Form A
[17] = 95% Relative humidity, listed as Cholinate Form A

Structure (SMILES): O=C(O)c1cc(NC(=O)C2(c3ccc(C(F)(F)F)cc3F)CC2)ccc1-c1cnn(C2CCC2)c1 [cholinate, 2-hydroxy-N,N,N-trimethylethanaminium 2-(1-cyclobutyl-1H-pyrazol-4-yl)-5-[({1-[2-fluoro-4-(trifluoromethyl)phenyl]cyclopropyl}carbonyl)amino]benzoate]
- solubility ([1]; 0.1M HCl, 25 °C, simulated gastric fluid, thermodynamic from solid, 0.1M HCl, 25° C., read-out: Solubility): < 1 µg/mL
- solubility ([1]; Acetone, 25° C.): 412 µg/mL
- solubility ([1]; Acetonitrile, 25° C.): 3797 µg/mL
- solubility ([1]; Ethanol, 25° C.): >12500 µg/mL
- solubility ([1]; PEG 400, 25° C.): 19159 µg/mL
- solubility ([1]; Phosphate buffer pH 8, 25° C.): 10798 µg/mL
- solubility ([1]; Solutol/Ethanol/Water (40/10/50 V/V/V), 25° C.): >35000 µg/mL
- solubility ([1]; Water, 25° C., stirred overnight): >12500** mg/L
- solubility ([1]; acetate buffer, 25 °C, pH 4.5, aqueous buffer, thermodynamic from solid, Acetate buffer pH 4.5, 25° C., read-out: Solubility): 2 µg/mL
- pH of the clear solution ([1]; solubility test in water, pH of water before stirring: 5.57): **pH of the clear solution: 8.32, pH of water before stirring: 5.57
- Change in mass [%], Desorption [2, 7]: −0.14%
- Change in mass [%], Sorption [2, 7]: 0.00%
- Change in mass [%], Desorption [2, 8]: 2.50%
- Change in mass [%], Sorption [2, 8]: 0.36%
- Change in mass [%], Desorption [2, 9]: 3.59%
- Change in mass [%], Sorption [2, 9]: 0.56%
- Change in mass [%], Desorption [2, 10]: 5.08%
- Change in mass [%], Sorption [2, 10]: 0.75%
- Change in mass [%], Desorption [2, 11]: 6.98%
- Change in mass [%], Sorption [2, 11]: 0.95%
- Change in mass [%], Desorption [2, 12]: 9.30%
- Change in mass [%], Sorption [2, 12]: 1.21%
- Change in mass [%], Desorption [2, 13]: 12.14%
- Change in mass [%], Sorption [2, 13]: 1.61%
- Change in mass [%], Desorption [2, 14]: 16.02%
- Change in mass [%], Sorption [2, 14]: 2.11%
- Change in mass [%], Desorption [2, 15]: 21.87%
- Change in mass [%], Sorption [2, 15]: 3.05%
- Change in mass [%], Desorption [2, 16]: 33.33%
- Change in mass [%], Sorption [2, 16]: 18.30%
- Change in mass [%], Desorption [2, 17]: 46.21%
- Change in mass [%], Sorption [2, 17]: 46.21%
- Hygroscopicity, comparison in words ([2]; in particular at 30-50% relative humidity): less hygroscopic than the other salts
- DVS Dm @ 30% R.H. (Sorption) [2]: 0.8%
- DVS Dm @ 50% R.H. (Sorption) [2]: 1.2%
- DVS Dm @ 80% R.H. (Sorption) [2]: 3.1%
- Dissolution profile, comparison in words [3]: better dissolution profile than the other salts
- Thermodynamic stability of the solid form [4]: thermodynamically stable at room temperature and at least up to 35 °C
- aqueous solubility, comparison in words ([5]; aqueous solvents, pH 4.5 and above, FeSSIF and FaSSIF): higher solubility than the amorphous or partially crystalline salts
- AUC(0-t) ([6]; rat, 10 mg/kg, dose equiv. 10 mg/kg): 60 µg·h/mL
- AUC(0-t) ([6]; rat, 248 mg/kg, dose equiv. 248 mg/kg): 745 µg·h/mL
- AUC(0-t) ([6]; rat, 495 mg/kg, dose equiv. 495 mg/kg): 1000 µg·h/mL
- AUC(0-tlast)norm ([6]; dose equiv. 10 mg/kg): 6 kg·h/L
- AUC(0-tlast) ([6]; dose equiv. 30 mg/kg): 146 µg·h/mL
- AUC(0-tlast)norm ([6]; dose equiv. 30 mg/kg): 4.8 kg·h/L
- AUC(0-tlast) ([6]; dose equiv. 100 mg/kg): 447 µg·h/mL
- AUC(0-tlast)norm ([6]; dose equiv. 100 mg/kg): 4.5 kg·h/L
- AUC(0-tlast)norm ([6]; dose equiv. 248 mg/kg): 3 kg·h/L
- AUC(0-tlast)norm ([6]; dose equiv. 495 mg/kg): 2 kg·h/L
- Increase of plasma exposure of free acid with dose ([6]; rat, doses above 30 mg/kg, listed as cholinate salt): dose-proportional increase of exposure up to a dose of approximately 100 mg/kg

Structure (SMILES): O=C([O-])c1cc(NC(=O)C2(c3ccc(C(F)(F)F)cc3F)CC2)ccc1-c1cnn(C2CCC2)c1.[Na+] [Sodium salt, Sodium 2-(1-cyclobutyl-1H-pyrazol-4-yl)-5-[({1-[2-fluoro-4-(trifluoromethyl)phenyl]cyclopropyl}carbonyl)amino]benzoate]
- Change in mass [%], Desorption ([2]; 0% Relative humidity): −3.95%
- Change in mass [%], Sorption ([2]; 0% Relative humidity): 0.00%
- Change in mass [%], Desorption ([2]; 10% Relative humidity): −0.87%
- Change in mass [%], Sorption ([2]; 10% Relative humidity): 0.85%
- Change in mass [%], Desorption ([2]; 20% Relative humidity): 0.84%
- Change in mass [%], Sorption ([2]; 20% Relative humidity): 1.36%
- Change in mass [%], Desorption ([2]; 30% Relative humidity): 1.91%
- Change in mass [%], Sorption ([2]; 30% Relative humidity): 1.92%
- Change in mass [%], Desorption ([2]; 40% Relative humidity): 3.33%
- Change in mass [%], Sorption ([2]; 40% Relative humidity): 2.95%
- Change in mass [%], Desorption ([2]; 50% Relative humidity): 5.07%
- Change in mass [%], Sorption ([2]; 50% Relative humidity): 7.77%
- Change in mass [%], Desorption ([2]; 60% Relative humidity): 7.95%
- Change in mass [%], Sorption ([2]; 60% Relative humidity): 11.23%
- Change in mass [%], Desorption ([2]; 70% Relative humidity): 11.79%
- Change in mass [%], Sorption ([2]; 70% Relative humidity): 15.05%
- Change in mass [%], Desorption ([2]; 80% Relative humidity): 16.87%
- Change in mass [%], Sorption ([2]; 80% Relative humidity): 20.22%
- Change in mass [%], Desorption ([2]; 90% Relative humidity): 26.84%
- Change in mass [%], Sorption ([2]; 90% Relative humidity): 30.67%
- Change in mass [%], Desorption ([2]; 95% Relative humidity): 42.62%
- Change in mass [%], Sorption ([2]; 95% Relative humidity): 42.62%
- DVS Dm @ 30% R.H. (Sorption) [2]: 1.9%
- DVS Dm @ 50% R.H. (Sorption) [2]: 5.1%
- DVS Dm @ 80% R.H. (Sorption) [2]: 20.2%
- Dissolution profile, comparison in words [3]: no differences
- solubility ([5]; Buffer pH 4.5, 25° C.): 3 mgfree acid/L
- solubility ([5]; Buffer pH 7, 25° C.): 421 mgfree acid/L
- solubility ([5]; Buffer pH 8, 25° C.): 5075 mgfree acid/L
- solubility ([5]; FaSSIF (37° C.) (Fasted State Simulated Intestinal Fluid)): 426 mgfree acid/L
- solubility ([5]; FeSSIF (37° C.) (Fed State Simulated Intestinal Fluid)): 14 mgfree acid/L
- solubility ([5]; Water, 25° C.): 6176 mgfree acid/L
